Key:
[1] = target: Rho-associated protein kinase 2 (Homo sapiens, UniProt O75116); assay: Biochemical ROCK2 assay
[2] = tested on: Epidermal growth factor receptor (Homo sapiens), P00533 [G719S]; conditions: Compound concentration 100.0 nM
[3] = tested on: K562; assay: Leukemia K562 cell line MDS Pharma Services Proliferation Assay; type: functional, cell-based, Homo sapiens
[4] = target: 5-hydroxytryptamine receptor 1A (Homo sapiens) (UniProt P08908); conditions: Compound concentration 10.0 uM
[5] = tested on: Saccharomyces cerevisiae; assay: CK1 (y) Upstate kinase activity assay; conditions: Compound concentration 10.0 uM
[6] = target: T1, Cytoplasmic tyrosine-protein kinase BMX (Homo sapiens) (UniProt P51813); assay: Bmx (h) Upstate kinase activity assay; conditions: Compound concentration 10.0 uM
T1 sequence (whole entry): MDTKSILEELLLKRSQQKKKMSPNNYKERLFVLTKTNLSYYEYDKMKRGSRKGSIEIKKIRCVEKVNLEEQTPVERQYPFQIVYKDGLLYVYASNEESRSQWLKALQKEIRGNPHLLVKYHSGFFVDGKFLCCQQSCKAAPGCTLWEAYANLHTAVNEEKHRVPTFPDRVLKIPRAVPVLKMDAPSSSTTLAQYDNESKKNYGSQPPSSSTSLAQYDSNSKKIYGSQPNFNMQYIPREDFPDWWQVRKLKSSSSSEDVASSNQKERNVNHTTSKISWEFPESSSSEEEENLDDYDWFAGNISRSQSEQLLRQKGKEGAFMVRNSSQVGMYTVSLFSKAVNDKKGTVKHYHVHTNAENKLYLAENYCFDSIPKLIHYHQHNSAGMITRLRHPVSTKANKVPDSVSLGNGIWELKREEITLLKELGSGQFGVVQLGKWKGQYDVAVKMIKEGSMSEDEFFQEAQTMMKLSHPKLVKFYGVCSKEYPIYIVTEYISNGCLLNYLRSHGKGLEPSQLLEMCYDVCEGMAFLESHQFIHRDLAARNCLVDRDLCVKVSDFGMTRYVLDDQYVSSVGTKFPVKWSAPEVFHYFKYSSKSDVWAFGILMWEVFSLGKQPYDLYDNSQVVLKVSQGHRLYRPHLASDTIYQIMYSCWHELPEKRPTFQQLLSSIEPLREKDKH

[7] = target: T2, Mitogen-activated protein kinase 13 (Homo sapiens) (UniProt O15264); assay: SAPK4 (h) Upstate kinase activity assay; conditions: Compound concentration 10.0 uM
T2 sequence (whole entry): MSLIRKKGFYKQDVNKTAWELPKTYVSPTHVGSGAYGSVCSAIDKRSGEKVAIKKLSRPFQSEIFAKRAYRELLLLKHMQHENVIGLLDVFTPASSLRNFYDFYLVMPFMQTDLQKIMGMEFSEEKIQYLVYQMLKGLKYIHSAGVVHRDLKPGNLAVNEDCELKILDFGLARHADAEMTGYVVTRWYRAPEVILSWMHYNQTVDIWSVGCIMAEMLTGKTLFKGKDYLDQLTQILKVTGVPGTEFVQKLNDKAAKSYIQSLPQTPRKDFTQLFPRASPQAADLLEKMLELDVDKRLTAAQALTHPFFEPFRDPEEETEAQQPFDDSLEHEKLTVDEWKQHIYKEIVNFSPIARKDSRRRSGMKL

[8] = target: Tyrosine-protein kinase Fgr (Homo sapiens) (UniProt P09769); assay: Fgr (h) Upstate kinase activity assay; conditions: Compound concentration 10.0 uM
Chain of Tyrosine-protein kinase Fgr (Homo sapiens) (P09769 2-529 limits assumed): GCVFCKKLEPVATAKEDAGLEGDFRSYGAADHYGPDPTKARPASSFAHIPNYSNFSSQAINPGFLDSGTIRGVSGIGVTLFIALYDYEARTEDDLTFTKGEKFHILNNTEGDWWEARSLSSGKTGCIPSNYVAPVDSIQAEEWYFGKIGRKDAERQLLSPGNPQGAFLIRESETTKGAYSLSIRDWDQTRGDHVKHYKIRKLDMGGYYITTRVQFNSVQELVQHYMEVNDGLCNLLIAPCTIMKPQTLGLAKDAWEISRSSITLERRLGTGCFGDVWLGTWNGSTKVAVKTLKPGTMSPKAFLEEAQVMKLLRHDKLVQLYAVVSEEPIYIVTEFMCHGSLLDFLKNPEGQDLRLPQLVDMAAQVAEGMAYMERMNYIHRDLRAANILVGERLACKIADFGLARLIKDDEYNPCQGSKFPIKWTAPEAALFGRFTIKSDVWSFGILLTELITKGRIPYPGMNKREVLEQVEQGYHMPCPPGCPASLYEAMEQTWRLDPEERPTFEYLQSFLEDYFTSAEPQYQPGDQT

[9] = target: Mitogen-activated protein kinase 1 (Homo sapiens) (UniProt P28482); assay: MAPK1 (h) Upstate kinase activity assay; conditions: Compound concentration 10.0 uM
Chain of Mitogen-activated protein kinase 1 (Homo sapiens) (P28482 whole entry): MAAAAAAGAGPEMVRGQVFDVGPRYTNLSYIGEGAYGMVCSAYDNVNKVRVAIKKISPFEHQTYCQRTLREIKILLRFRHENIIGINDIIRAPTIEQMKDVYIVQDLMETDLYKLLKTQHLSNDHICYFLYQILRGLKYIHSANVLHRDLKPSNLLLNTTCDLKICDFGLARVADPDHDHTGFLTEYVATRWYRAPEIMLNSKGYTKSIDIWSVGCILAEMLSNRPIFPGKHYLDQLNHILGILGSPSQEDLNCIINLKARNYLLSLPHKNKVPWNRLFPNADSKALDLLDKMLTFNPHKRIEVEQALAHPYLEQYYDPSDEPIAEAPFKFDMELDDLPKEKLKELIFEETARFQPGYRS

[10] = Lung NCI-1-1460 cell line MDS Pharma Services Proliferation Assay; type: functional, cell-based, Homo sapiens
[11] = target: Angiopoietin-1 receptor (Homo sapiens) (UniProt Q02763); assay: Tie2 (h) Upstate kinase activity assay; conditions: Compound concentration 10.0 uM
Chain of Angiopoietin-1 receptor (Homo sapiens) (Q02763 whole entry): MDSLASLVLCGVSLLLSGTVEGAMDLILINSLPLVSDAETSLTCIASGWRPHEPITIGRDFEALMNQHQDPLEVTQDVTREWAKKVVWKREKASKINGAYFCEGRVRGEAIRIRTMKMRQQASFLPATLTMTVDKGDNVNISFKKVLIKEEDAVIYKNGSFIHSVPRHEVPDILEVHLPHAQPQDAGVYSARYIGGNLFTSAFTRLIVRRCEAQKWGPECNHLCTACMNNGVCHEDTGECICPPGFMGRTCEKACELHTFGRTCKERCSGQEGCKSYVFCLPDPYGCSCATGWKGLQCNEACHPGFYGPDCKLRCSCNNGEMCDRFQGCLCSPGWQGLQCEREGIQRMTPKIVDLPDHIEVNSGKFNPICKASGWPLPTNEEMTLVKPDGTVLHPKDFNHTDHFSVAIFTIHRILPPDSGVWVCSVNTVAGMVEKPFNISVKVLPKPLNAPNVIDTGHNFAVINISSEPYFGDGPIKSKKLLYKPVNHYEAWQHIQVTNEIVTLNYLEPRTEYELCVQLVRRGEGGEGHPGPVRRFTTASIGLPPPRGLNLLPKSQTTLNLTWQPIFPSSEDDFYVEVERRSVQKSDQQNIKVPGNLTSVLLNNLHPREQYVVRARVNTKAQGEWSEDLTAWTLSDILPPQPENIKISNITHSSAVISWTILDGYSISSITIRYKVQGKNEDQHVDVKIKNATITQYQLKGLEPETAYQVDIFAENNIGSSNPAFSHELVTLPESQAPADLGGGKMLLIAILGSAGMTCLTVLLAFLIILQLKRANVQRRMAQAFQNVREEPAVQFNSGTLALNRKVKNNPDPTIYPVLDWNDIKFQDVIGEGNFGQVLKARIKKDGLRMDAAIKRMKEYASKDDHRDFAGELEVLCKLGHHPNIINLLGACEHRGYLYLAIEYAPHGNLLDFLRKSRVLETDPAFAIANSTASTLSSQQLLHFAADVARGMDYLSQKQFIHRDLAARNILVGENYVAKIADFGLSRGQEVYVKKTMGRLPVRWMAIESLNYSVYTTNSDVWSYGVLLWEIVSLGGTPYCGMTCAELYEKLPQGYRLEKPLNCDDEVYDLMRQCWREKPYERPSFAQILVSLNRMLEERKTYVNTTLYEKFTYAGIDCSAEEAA

[12] = target: Mitogen-activated protein kinase 1 (Mus musculus) (UniProt P63085); assay: MAPK2 (m) Upstate kinase activity assay; conditions: Compound concentration 10.0 uM
Chain of Mitogen-activated protein kinase 1 (Mus musculus) (P63085 whole entry): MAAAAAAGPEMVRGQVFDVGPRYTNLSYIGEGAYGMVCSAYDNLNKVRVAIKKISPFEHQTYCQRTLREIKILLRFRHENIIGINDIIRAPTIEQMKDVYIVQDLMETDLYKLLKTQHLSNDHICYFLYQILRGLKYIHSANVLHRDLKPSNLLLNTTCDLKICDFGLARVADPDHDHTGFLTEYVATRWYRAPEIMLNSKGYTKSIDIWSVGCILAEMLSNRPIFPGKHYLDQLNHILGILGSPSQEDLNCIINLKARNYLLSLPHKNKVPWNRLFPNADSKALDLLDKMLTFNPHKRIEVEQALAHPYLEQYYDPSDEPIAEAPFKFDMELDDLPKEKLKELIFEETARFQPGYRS

[13] = target: Protein kinase C zeta type (Homo sapiens) (UniProt Q05513); assay: PKCzeta (h) Upstate kinase activity assay; conditions: Compound concentration 10.0 uM
Chain of Protein kinase C zeta type (Homo sapiens) (Q05513 whole entry): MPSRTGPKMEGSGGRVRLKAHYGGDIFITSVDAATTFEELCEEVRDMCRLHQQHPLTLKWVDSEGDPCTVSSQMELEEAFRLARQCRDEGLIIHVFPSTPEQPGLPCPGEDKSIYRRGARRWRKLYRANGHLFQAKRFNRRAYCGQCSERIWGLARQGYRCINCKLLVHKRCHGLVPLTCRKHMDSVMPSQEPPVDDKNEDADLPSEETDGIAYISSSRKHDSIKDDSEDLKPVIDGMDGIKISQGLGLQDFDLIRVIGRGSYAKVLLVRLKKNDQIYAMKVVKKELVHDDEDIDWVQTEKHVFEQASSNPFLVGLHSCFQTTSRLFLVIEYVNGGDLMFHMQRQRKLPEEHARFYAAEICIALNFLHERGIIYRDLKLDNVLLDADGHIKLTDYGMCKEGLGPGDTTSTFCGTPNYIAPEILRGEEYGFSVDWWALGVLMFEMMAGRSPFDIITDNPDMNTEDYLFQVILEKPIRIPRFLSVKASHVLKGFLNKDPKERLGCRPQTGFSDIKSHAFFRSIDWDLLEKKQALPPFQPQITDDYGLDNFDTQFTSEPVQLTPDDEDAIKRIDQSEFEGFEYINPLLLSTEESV

Chain of 5-hydroxytryptamine receptor 1A (Homo sapiens) (P08908 whole entry): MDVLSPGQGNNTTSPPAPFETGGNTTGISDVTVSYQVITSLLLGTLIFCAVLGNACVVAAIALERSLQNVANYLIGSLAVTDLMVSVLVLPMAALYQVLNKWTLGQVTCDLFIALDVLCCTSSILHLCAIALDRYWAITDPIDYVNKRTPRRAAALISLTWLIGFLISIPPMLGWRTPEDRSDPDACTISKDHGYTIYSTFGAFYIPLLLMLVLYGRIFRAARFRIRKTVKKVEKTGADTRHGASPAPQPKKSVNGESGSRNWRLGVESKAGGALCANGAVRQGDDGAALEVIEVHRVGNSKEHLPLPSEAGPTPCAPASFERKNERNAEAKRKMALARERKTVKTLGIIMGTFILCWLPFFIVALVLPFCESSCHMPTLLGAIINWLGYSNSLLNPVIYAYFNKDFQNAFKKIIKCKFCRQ
Chain of Rho-associated protein kinase 2 (O75116 whole entry): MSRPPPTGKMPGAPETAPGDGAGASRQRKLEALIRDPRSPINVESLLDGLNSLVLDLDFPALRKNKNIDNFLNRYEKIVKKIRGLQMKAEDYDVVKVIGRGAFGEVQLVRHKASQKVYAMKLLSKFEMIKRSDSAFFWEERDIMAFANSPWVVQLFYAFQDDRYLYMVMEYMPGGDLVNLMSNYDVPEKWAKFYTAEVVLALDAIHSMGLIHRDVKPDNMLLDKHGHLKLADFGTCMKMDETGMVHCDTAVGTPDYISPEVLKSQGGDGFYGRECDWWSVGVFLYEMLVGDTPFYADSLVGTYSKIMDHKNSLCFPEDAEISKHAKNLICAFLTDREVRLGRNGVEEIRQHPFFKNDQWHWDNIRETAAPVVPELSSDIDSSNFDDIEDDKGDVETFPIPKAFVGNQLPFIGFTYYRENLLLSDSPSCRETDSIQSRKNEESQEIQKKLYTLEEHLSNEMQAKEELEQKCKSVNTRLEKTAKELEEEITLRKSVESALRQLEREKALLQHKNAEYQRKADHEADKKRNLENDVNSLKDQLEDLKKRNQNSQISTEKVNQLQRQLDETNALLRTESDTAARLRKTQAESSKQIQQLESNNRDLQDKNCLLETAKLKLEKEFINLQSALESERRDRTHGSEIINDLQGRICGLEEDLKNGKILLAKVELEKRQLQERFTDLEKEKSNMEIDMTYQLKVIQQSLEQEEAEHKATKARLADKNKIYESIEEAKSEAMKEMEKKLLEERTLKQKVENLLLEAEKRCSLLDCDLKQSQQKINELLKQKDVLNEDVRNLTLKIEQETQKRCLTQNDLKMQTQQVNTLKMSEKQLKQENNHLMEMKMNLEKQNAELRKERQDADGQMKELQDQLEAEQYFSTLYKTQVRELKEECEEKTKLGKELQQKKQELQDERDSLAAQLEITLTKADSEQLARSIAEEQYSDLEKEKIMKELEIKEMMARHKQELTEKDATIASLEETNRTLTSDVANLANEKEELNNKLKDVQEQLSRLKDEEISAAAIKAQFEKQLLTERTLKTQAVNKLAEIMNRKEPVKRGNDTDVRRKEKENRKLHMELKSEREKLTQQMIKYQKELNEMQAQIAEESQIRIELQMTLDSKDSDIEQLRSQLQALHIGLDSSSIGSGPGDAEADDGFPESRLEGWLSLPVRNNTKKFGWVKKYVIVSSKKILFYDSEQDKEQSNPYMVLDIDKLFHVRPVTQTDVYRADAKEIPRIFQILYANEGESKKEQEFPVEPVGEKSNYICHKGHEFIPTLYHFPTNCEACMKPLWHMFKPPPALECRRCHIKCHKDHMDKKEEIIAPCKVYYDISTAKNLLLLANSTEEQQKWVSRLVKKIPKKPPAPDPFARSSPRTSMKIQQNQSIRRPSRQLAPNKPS

Which results are given for Cn1cc(Cl)c2c(Oc3c(F)cc(Nc4cc(Cl)nc(N)n4)cc3F)ccnc21 [BAY-4900]?
IC50 [1]: 17.7 µM (not active); residual activity [2]: 98%

Which results are given for Cc1c[nH]c2nccc(Oc3c(F)cc(Nc4cc(Cl)nc(N)n4)cc3F)c12 [BAY-549]?
IC50 ([3]; Homo sapiens, K562): 8.3 µM; TGI ([3]; Homo sapiens, K562): > 100 µM; CC50 ([3]; Homo sapiens, K562, read-out: LC50 (the source's name)): > 100 µM; Mean % growth (n = 2) for 10.0 µM probe concentration ([3]; ± SEM 3 % growth): 42%; Mean % growth (n = 2) for 1.0 µM probe concentration ([3]; ± SEM 4 % growth): 69%; Mean % growth (n = 2) for 0.1 µM probe concentration ([3]; ± SEM 5 % growth): 92%; Mean % growth (n = 2) for 100.0 µM probe concentration ([3]; ± SEM 6 % growth): 32%; Mean % growth (n = 2) for 0.01 µM probe concentration ([3]; ± SEM 7 % growth): 95%; inhibition [4]: 11.7%; inhibition [5]: 44%; inhibition [6]: 18%; inhibition [7]: 16%; inhibition [8]: 27%; inhibition [9]: 1%; TGI ([10]; Homo sapiens, Lung NCI-1-1460): 11 µM; CC50 ([10]; Homo sapiens, Lung NCI-1-1460, read-out: LC50 (the source's name)): > 100 µM; Mean % growth (n = 2) for 0.01 µM probe concentration ([10]; ± SEM 1 % growth): 98%; Mean % growth (n = 2) for 10.0 µM probe concentration ([10]; ± SEM 1 % growth): 2%; Mean % growth (n = 2) for 1.0 µM probe concentration ([10]; ± SEM 2 % growth): 50%; Mean % growth (n = 2) for 0.1 µM probe concentration ([10]; ± SEM 3 % growth): 82%; Mean % growth (n = 2) for 100.0 µM probe concentration ([10]; ± SEM 12 % growth): -45%; inhibition [11]: 26%; inhibition [12]: 21%; inhibition [13]: -7%
